Data set [1] has as its system Rat basophilic leukemia cells (RBL-2H3). The experiment in a line: MTT cell survival rate of RBL-2H3. It counts as cell-based. The following applies: positive control group, concentration not given; RBL-2H3, MTT. The method, then:
(§1) Rat basophilic leukemia cells (RBL-2H3) is seeded in a 96-well cell culture plate, with each well containing 5*10^4 cells. Cells are incubated in a 37-degree Celsius incubator with 5% CO2 overnight to allow attachment to the culture plate. Replace the culture medium with culture medium containing the care composition (hereinafter referred to as AMDS) of different dilution rates (1/1600, 1/800, 1/400, 1/200, and 1/100) and control groups (a blank control group and a positive control group, which is incubated in culture medium containing quercetin). After 30 minutes of incubation, A23187 (1 μg/mL) is added and allowed reaction for an hour. β-hexosaminidase level is analyzed by applying cell culture supernatant to enzyme-linked immunosorbent assay (ELISA). Replace the culture medium with that containing MTT (0.5 mg/mL), followed with 2-hour incubation. Discard the MTT-medium solution, and add DMSO (150 μL/well) to each well. Let sit in room temperature for 10 minutes, allowing the purple formazan to fully dissolve. The cell survival rate is calculated and determined by detecting the optical density (O.D.) at wavelength 570 in a spectrophotometer. Cell survival rate (%)=(sample OD570/blank control group OD570)*100%. […] The lower the β-hexosaminidase, the greater the anti-allergy effect. […]

For data set [2] the test system is unchanged. As to the kind of experiment: β-hexosaminidase level (ELISA) in A23187-stimulated RBL-2H3 cells, anti-allergy effect. The following applies: positive control group, concentration not given; RBL-2H3, A23187 1 μg/mL; blank control = 100. It counts as cell-based. The method, then: as §1
Background: ELISA stands for enzyme-linked immunosorbent assay.

Regarding `O=c1c(O)c(-c2ccc(O)c(O)c2)oc2cc(O)cc(O)c12` [quercetin], in data set [1], the “Cell survival rate (%)” value is reported as 87.97%. For the same compound, the “β-hexosaminidase (%)” value in data set [2] came out at 1.8%.

Values taken from patent US12409201B2, “Care composition and use thereof” (priority 2020, dated 2025).
